According to patent US20080160552A1, “Methods and Compounds for Treating Inflammation” (priority 2006, published 2008):

Test system: HPAE cells
Assay: Transendothelial electrical resistance (TER) measurement after thrombin
Type: cell-based, Human
Conditions: pretreated with 1 uM Go6976 for 30 min, 50 nM thrombin
Description: FIG. 7. Effects of C1-S96A mutant on MLC phosphorylation, actin stress fiber formation, and loss of endothelial barrier function in response to thrombin. A-B, MLC phosphorylation in response to thrombin in cells transfected with C1 or C1-S96A-GDI-1 mutant. Cells were stimulated with thrombin for indicated time and lysates were Western blotted with anti-phospho-MLC (top) or anti-GFP Abs to determine MLC phosphorylation. […] C, Actin stress fiber formation in response to thrombin in cells transducing GFP-tagged C1 or GFP-tagged C1-S96A mutant. Cells were stimulated with thrombin for 5 min and fixed followed by staining with Alexa-labeled phallodin to determine actin stress fiber formation by confocal imaging. […] TER values are calculated as change in resistance over the value at time zero (n=7). […] After 30 hrs cells were pretreated with 1 uM Go6976 to inhibit PKCα for 30 min and changes in transendothelial electrical resistance (TER) after addition of 50 nM thrombin were determined. TER values are calculated as change in resistance over the value at time zero (n=8). […]
Transendothelial resistance measurement: The time course of endothelial cell retraction in real time, a measure of increased endothelial permeability, was measured according to the procedure described previously (16, 23).

Structure (SMILES): Cn1c2ccccc2c2c3c(c4c5ccccc5n(CCC#N)c4c21)CNC3=O [G66976]
- thrombin-induced decrease in TER (HPAE cells transducing C1-GDI-1 mutant): significantly reduced
- thrombin-induced decrease in TER (HPAE cells transducing S91A (S96A) GDI-1 mutant): not seen
